Data from the NIST ThermoML archive (doi:10.1016/j.jct.2016.02.009).
“And” between values parts separate entries of the source, which are not always exact repeats. Equal values may be shown once.

Test: molar heat capacity at constant pressure
Conditions: 101.33 kPa, Small (less than 1 g) adiabatic calorimetry

CCCCCCCCCCn1cc[n+](C)c1.O=S(=O)([N-]S(=O)(=O)C(F)(F)F)C(F)(F)F
Conditions | molar heat capacity at constant pressure
142.54 K, Metastable crystal | 368.4 J/K/mol
144.48 K, Crystal 2 | 358.2 J/K/mol
144.48 K, Metastable crystal | 372.5 J/K/mol
146.41 K, Metastable crystal | 376.6 J/K/mol
146.45 K, Crystal 2 | 361.5 J/K/mol
148.35 K, Metastable crystal | 380.7 J/K/mol
148.41 K, Crystal 2 | 365 J/K/mol
150 K, Crystal 2 | 367.5 J/K/mol
150 K, Metastable crystal | 384.3 J/K/mol
150.28 K, Metastable crystal | 384.8 J/K/mol
150.38 K, Crystal 2 | 368.2 J/K/mol
152.21 K, Metastable crystal | 389.1 J/K/mol
152.35 K, Crystal 2 | 371.7 J/K/mol
154.14 K, Metastable crystal | 393.4 J/K/mol
154.32 K, Crystal 2 | 375 J/K/mol
155.25 K, Crystal 2 | 376.4 J/K/mol
156.07 K, Metastable crystal | 397.7 J/K/mol
157.33 K, Crystal 2 | 380.2 J/K/mol
157.99 K, Metastable crystal | 402.2 J/K/mol
159.29 K, Crystal 2 | 383.4 J/K/mol
159.91 K, Metastable crystal | 406.6 J/K/mol
160 K, Crystal 2 | 384.7 J/K/mol
160 K, Metastable crystal | 406.8 J/K/mol
161.26 K, Crystal 2 | 387 J/K/mol
161.83 K, Metastable crystal | 411 J/K/mol
163.22 K, Crystal 2 | 390.1 J/K/mol
163.75 K, Metastable crystal | 415.7 J/K/mol
165.19 K, Crystal 2 | 393.6 J/K/mol
165.66 K, Metastable crystal | 420.2 J/K/mol
167.15 K, Crystal 2 | 397.2 J/K/mol
167.56 K, Metastable crystal | 425 J/K/mol
169.11 K, Crystal 2 | 400.7 J/K/mol
169.47 K, Metastable crystal | 429.9 J/K/mol
170 K, Crystal 2 | 402.3 J/K/mol
170 K, Metastable crystal | 431.2 J/K/mol
171.07 K, Crystal 2 | 404.1 J/K/mol
171.37 K, Metastable crystal | 434.6 J/K/mol
173.03 K, Crystal 2 | 407.6 J/K/mol
173.27 K, Metastable crystal | 440 J/K/mol
174.98 K, Crystal 2 | 411.2 J/K/mol
175.16 K, Metastable crystal | 445.5 J/K/mol
176.93 K, Crystal 2 | 414.8 J/K/mol
177.04 K, Metastable crystal | 451.4 J/K/mol
178.88 K, Crystal 2 | 418.4 J/K/mol
178.92 K, Metastable crystal | 458.1 J/K/mol
180 K, Crystal 2 | 420.7 J/K/mol
180 K, Metastable crystal | 462.6 J/K/mol
180.78 K, Metastable crystal | 466 J/K/mol
180.83 K, Crystal 2 | 422.1 J/K/mol
182.64 K, Metastable crystal | 476.8 J/K/mol
182.78 K, Crystal 2 | 426 J/K/mol
184.47 K, Metastable crystal | 489.9 J/K/mol
184.72 K, Crystal 2 | 430 J/K/mol
186.29 K, Metastable crystal | 501.9 J/K/mol
186.66 K, Crystal 2 | 434 J/K/mol
188.1 K, Metastable crystal | 507.1 J/K/mol
188.59 K, Crystal 2 | 438.2 J/K/mol
189.9 K, Metastable crystal | 510.3 J/K/mol
190 K, Crystal 2 | 440.9 J/K/mol
190 K, Metastable crystal | 510.3 J/K/mol
190.52 K, Crystal 2 | 442.2 J/K/mol
191.71 K, Metastable crystal | 511.1 J/K/mol
192.45 K, Crystal 2 | 446.2 J/K/mol
193.51 K, Metastable crystal | 514.8 J/K/mol
194.38 K, Crystal 2 | 450.4 J/K/mol
195.31 K, Metastable crystal | 521.6 J/K/mol
196.3 K, Crystal 2 | 455.3 J/K/mol
197.11 K, Metastable crystal | 529.9 J/K/mol
198.22 K, Crystal 2 | 460.2 J/K/mol
198.89 K, Metastable crystal | 539.6 J/K/mol
200 K, Crystal 2 | 463.2 J/K/mol
200 K, Metastable crystal | 546.2 J/K/mol
200.13 K, Crystal 2 | 465.1 J/K/mol
200.65 K, Metastable crystal | 550 J/K/mol
202.1 K, Crystal 2 | 470.5 J/K/mol
202.46 K, Metastable crystal | 568.9 J/K/mol
204.12 K, Crystal 2 | 476.2 J/K/mol
204.28 K, Metastable crystal | 599.4 J/K/mol
206.02 K, Metastable crystal | 683.4 J/K/mol
206.13 K, Crystal 2 | 482 J/K/mol
207.65 K, Metastable crystal | 752.9 J/K/mol
208.14 K, Crystal 2 | 487.2 J/K/mol
209.38 K, Metastable crystal | 552.2 J/K/mol
210 K, Crystal 2 | 489.1 J/K/mol
210 K, Metastable crystal | 513 J/K/mol
210.15 K, Crystal 2 | 491.5 J/K/mol
211.31 K, Metastable crystal | 512.9 J/K/mol
212.15 K, Crystal 2 | 495.6 J/K/mol
213.27 K, Metastable crystal | 512 J/K/mol
214.15 K, Crystal 2 | 500.9 J/K/mol
215.24 K, Metastable crystal | 515.4 J/K/mol
216.13 K, Crystal 2 | 507 J/K/mol
217.2 K, Metastable crystal | 523.2 J/K/mol
218.12 K, Crystal 2 | 513.6 J/K/mol
219.17 K, Metastable crystal | 551.8 J/K/mol
220 K, Crystal 2 | 519.8 J/K/mol
220.09 K, Crystal 2 | 520.6 J/K/mol
221.12 K, Metastable crystal | 812.2 J/K/mol
222.05 K, Crystal 2 | 528.2 J/K/mol
224 K, Crystal 2 | 536.2 J/K/mol
225.95 K, Crystal 2 | 545.3 J/K/mol
227.87 K, Crystal 2 | 555.4 J/K/mol
229.79 K, Crystal 2 | 567 J/K/mol
230 K, Crystal 2 | 569.2 J/K/mol
231.68 K, Crystal 2 | 580.6 J/K/mol
233.56 K, Crystal 2 | 594.7 J/K/mol
235.42 K, Crystal 2 | 610.3 J/K/mol
237.26 K, Crystal 2 | 624.9 J/K/mol
239.07 K, Crystal 2 | 641 J/K/mol
240 K, Crystal 2 | 651.3 J/K/mol
240.86 K, Crystal 2 | 665.1 J/K/mol
242.62 K, Crystal 2 | 694.9 J/K/mol
244.33 K, Crystal 2 | 733.6 J/K/mol
245.99 K, Crystal 2 | 789 J/K/mol
247.56 K, Crystal 2 | 885.2 J/K/mol
249 K, Crystal 1 | 1053 J/K/mol
249 K, Crystal 2 | 1053 J/K/mol
249.01 K, Crystal 1 | 1053 J/K/mol
250.61 K, Crystal 1 | 627.9 J/K/mol
252 K, Crystal 1 | 619.2 J/K/mol
252.45 K, Crystal 1 | 620.8 J/K/mol
254.29 K, Crystal 1 | 629.9 J/K/mol
256.12 K, Crystal 1 | 642.5 J/K/mol
257.94 K, Crystal 1 | 658.6 J/K/mol
259.72 K, Crystal 1 | 680.3 J/K/mol
260 K, Crystal 1 | 648.7 J/K/mol
261.48 K, Crystal 1 | 710 J/K/mol
263.19 K, Crystal 1 | 751.8 J/K/mol
263.96 K, Liquid | 730.6 J/K/mol
264.85 K, Crystal 1 | 795.1 J/K/mol
265.87 K, Liquid | 731.7 J/K/mol
266.46 K, Crystal 1 | 822.8 J/K/mol
267.69 K, Liquid | 733 J/K/mol
268.04 K, Crystal 1 | 872.1 J/K/mol
269.51 K, Liquid | 734.3 J/K/mol
269.56 K, Crystal 1 | 972.8 J/K/mol
270 K, Crystal 1 | 687.6 J/K/mol
271.33 K, Liquid | 735.9 J/K/mol
273.16 K, Liquid | 736.9 J/K/mol
274.98 K, Liquid | 738.2 J/K/mol
276.81 K, Liquid | 739.4 J/K/mol
277.33 K, Crystal 1 | 717.5 J/K/mol
277.33 K, Liquid | 739.7 J/K/mol
278.63 K, Liquid | 740.6 J/K/mol
278.84 K, Liquid | 741.1 J/K/mol
280 K, Liquid | 741.6 J/K/mol
280.45 K, Liquid | 741.8 J/K/mol
280.56 K, Liquid | 742.3 J/K/mol
282.28 K, Liquid | 743.2 J/K/mol and 742.8 J/K/mol
284 K, Liquid | 744.4 J/K/mol
284.1 K, Liquid | 744.5 J/K/mol
285.72 K, Liquid | 745.6 J/K/mol
285.92 K, Liquid | 745.7 J/K/mol
287.44 K, Liquid | 747.1 J/K/mol
287.75 K, Liquid | 746.9 J/K/mol
289.16 K, Liquid | 747.9 J/K/mol
289.57 K, Liquid | 748.4 J/K/mol
290 K, Liquid | 748.8 J/K/mol
290.88 K, Liquid | 749.4 J/K/mol
291.4 K, Liquid | 749.8 J/K/mol
292.6 K, Liquid | 750.6 J/K/mol
293.22 K, Liquid | 750.8 J/K/mol
294.32 K, Liquid | 751.9 J/K/mol
295.05 K, Liquid | 752.4 J/K/mol
296.04 K, Liquid | 753.2 J/K/mol
296.87 K, Liquid | 753.9 J/K/mol
297.77 K, Liquid | 754.3 J/K/mol
298.15 K, Liquid | 754.8 J/K/mol
298.69 K, Liquid | 755.1 J/K/mol
299.49 K, Liquid | 755.7 J/K/mol
300 K, Liquid | 756.2 J/K/mol
301.26 K, Liquid | 757.2 J/K/mol
303.08 K, Liquid | 758.7 J/K/mol
304.91 K, Liquid | 759.9 J/K/mol
306.73 K, Liquid | 761.3 J/K/mol
308.56 K, Liquid | 762.8 J/K/mol
310 K, Liquid | 763.8 J/K/mol
310.38 K, Liquid | 764.3 J/K/mol
312.21 K, Liquid | 765.5 J/K/mol
314.03 K, Liquid | 766.8 J/K/mol
315.86 K, Liquid | 768.4 J/K/mol
317.69 K, Liquid | 769.8 J/K/mol
319.51 K, Liquid | 771.1 J/K/mol
320 K, Liquid | 771.5 J/K/mol
321.34 K, Liquid | 772.8 J/K/mol
323.17 K, Liquid | 774.3 J/K/mol
324.99 K, Liquid | 775.7 J/K/mol
326.82 K, Liquid | 777.2 J/K/mol
328.64 K, Liquid | 778.5 J/K/mol
330 K, Liquid | 779.5 J/K/mol
330.47 K, Liquid | 779.9 J/K/mol
332.29 K, Liquid | 781.6 J/K/mol
334.12 K, Liquid | 783.1 J/K/mol
335.95 K, Liquid | 784.6 J/K/mol
337.77 K, Liquid | 786 J/K/mol
339.6 K, Liquid | 787.5 J/K/mol
340 K, Liquid | 787.7 J/K/mol
341.42 K, Liquid | 788.9 J/K/mol
343.25 K, Liquid | 789.9 J/K/mol
345.08 K, Liquid | 791.3 J/K/mol
346.91 K, Liquid | 793.1 J/K/mol
348.74 K, Liquid | 794.8 J/K/mol
350 K, Liquid | 796 J/K/mol
350.57 K, Liquid | 796.5 J/K/mol
352.4 K, Liquid | 797.8 J/K/mol
354.23 K, Liquid | 799.5 J/K/mol
356.06 K, Liquid | 801.2 J/K/mol
357.89 K, Liquid | 802.8 J/K/mol
359.72 K, Liquid | 804.3 J/K/mol
360 K, Liquid | 804.6 J/K/mol
361.55 K, Liquid | 806 J/K/mol
363.37 K, Liquid | 807.7 J/K/mol
365.2 K, Liquid | 809.1 J/K/mol
367.03 K, Liquid | 810.8 J/K/mol
368.86 K, Liquid | 812.7 J/K/mol
370 K, Liquid | 813.4 J/K/mol
